# Laboratory results published in article PMC2747106 (Journal of veterinary pharmacology and therapeutics, 2009).
# Where a name gives a salt, the structure may show the parent alone.
# Tests used:
# [1] = system: organic anion transporters (OAT); experiment: Inhibition study: effect of inhibitors on ES permeation across BME-UV monolayer; format: cell-based, bovine; conditions: inhibitor added to donor compartment
# [2] = system: organic cation transporters (OCT); experiment: Inhibition study: effect of inhibitors on TEA permeation across BME-UV monolayer; format: cell-based, bovine; conditions: inhibitor added to donor compartment
# [3] = bovine
# [4] = system: mouse mammary epithelial monolayer; conditions: ref Toddywalla et al., 1997; cited from earlier work
# [5] = system: human mammary epithelial monolayer; conditions: ref Kimura et al., 2006; cited from earlier work
# [6] = system: organic cation transporters (TEA); organic anion transporters (ES); conditions: bovine
# [7] = in vitro
# [8] = system: monolayer of BME-UV cells
# [9] = either direction (data not shown)
compound,measurement,setting,value
CCCN(CCC)S(=O)(=O)c1ccc(C(=O)O)cc1 [probenecid],decrease of permeation rate constant of ES by inhibitor,[1]; BL-to-Ap direction only,approximately 36%
same,effect of inhibitor on permeation rate constant of TEA,[2]; [9],not changed significantly
OC[C@@H](O)[C@@H](O)[C@H](O)[C@H](O)CO [mannitol],"Papp at 4 h, 2 µM",[3],0.91 ± 0.4 ×10⁻⁶ cm/s
same,Papp of mannitol,[4],1.94e-06 cm/s
same,Papp of mannitol,[5],2.6e-06 cm/s
"C[C@]12CC[C@@H]3c4ccc(OS(=O)(=O)O)cc4CC[C@H]3[C@@H]1CCC2=O [ES, estrone sulfate]","Papp A→B at 4 h, 100 µM",[6],0.66 ± 0.06 ×10⁻⁶ cm/s
same,"Papp B→A at 4 h, 100 µM",[6],2.2 ± 0.1 ×10⁻⁶ cm/s
same,Papp at 4 h,[7],122 ± 34 ×10⁻⁶ cm/s
"CCN1C(=Cc2ccc3ccccc3[n+]2CC)C=Cc2ccccc21.[I-] [cyanine, 1,1-Diethyl-2,2-cyanine iodide]",effect of inhibitor on permeation rate constant of ES,[1]; [9],not changed significantly
same,decrease of permeation rate constant of TEA by inhibitor,[2]; BL-to-Ap direction only,approximately 49%
"CC[N+](CC)(CC)CC [TEA, Tetraethylammonium bromide]","permeation rate constant for TEA relative to ES, Ap-to-BL",[8]; Ap-to-BL direction,3 times
same,"permeation rate constant for TEA relative to ES, BL-to-Ap",[8]; BL-to-Ap direction,2 times
same,"Papp A→B at 4 h, 100 µM",[6],2 ± 0.02 ×10⁻⁶ cm/s
same,"Papp B→A at 4 h, 100 µM",[6],5.1 ± 0.4 ×10⁻⁶ cm/s
same,Papp at 4 h,[7],161 ± 18 ×10⁻⁶ cm/s
